These results are taken from US4343795A, “Biologically active amides” (priority 1977, dated 1982).

One test relates to guinea-pigs. Put plainly: Anti-tussive testing, citric acid aerosol in guinea-pigs. It is filed as in vivo. As to conditions: guinea-pig; for ANTITUSSIVE ED50 p.o.: 20% citric acid aerosol 30 minutes after compound. As for the experimental part:
J. Pharmacol., 39, (1970) 225.
(C) For anti-tussive testing, guinea-pigs are subjected to an aerosol containing 20% citric acid, 30 minutes after administration of compound (orally or subcutaneously). The number of coughs during a five minute exposure are counted and meaned for six animals per treatment. The method is that described by Boura, A. L. A., Green, A. F. and Saunders, I. A. Br. J. Pharmac., May 1970, Vol. 39, No. 1, page 225.
(§1) From the data obtained the respective ED50 figures were calculated (i.e. the dose required to elicit the appropriate effect in 50% of the animals). N.T.: not tested.

Test [1] deals with mice. Put plainly: Analgesia in mice in the writhing test. In kind it is in vivo. As to conditions: mouse, p.o.
Text: As a further example the compounds are effective in reducing acetic acid-induced writhing in mice when tested by a modification of the method of Henderson et. al., J. Pharm. Exp. Therap. 125 (1959), 237; the compounds being administered orally and this reduction in writhing is abolished by naloxone.
(D) Analgesia in mice in the writhing test (modification of the method of Henderson et. al. (J. Pharm. Exp. Therap., 125,(1959),237) the peptide being administered orally.
as §1
Background: Writhing tests count abdominal constrictions after an irritant is injected.

A further test deals with rat. Put plainly: Antidiarrhoeal activity in the rat (castor oil). It is filed as in vivo. As to conditions: for ANTIDARRHOEA ED50 p.o. / ANTIDARRHOEA ED50 s.c.: castor oil 15 minutes after peptide. The protocol: (B) Antidiarrhoeal activity in the rat. In this procedure rats were starved for 24 hours, the peptide then administered either subcutaneously or orally followed after 15 minutes by 1 ml. castor oil per rat given orally.
as §1

The subject of test [2] is mice. Put plainly: Analgesia in mice in the hot plate test. In kind it is in vivo. As to conditions: i.c.v. As for the experimental part: (A) Analgesia in mice in the hot plate test (modification of the method of Eddy, N. B. et al., J. Pharm. Exp. Therap. (1953) 107, 385, the peptide being administered by intracerebroventricular injection).
as §1
On the technique in general: In hot-plate and tail-flick tests a longer latency is read as antinociception.

Test [3] concerns laboratory animals including rats and mice. Put plainly: Induction of anaesthesia / abolition of the righting reflex in laboratory animals. As to conditions: laboratory animals such as mice, up to lethal doses.

Where a name gives a salt, the structure may show the parent alone. Non-standard residues stand in square brackets, D forms with d. Residues, ends and D or L forms follow the SMILES beside them. Phe(4-NO2) = N[C@@H](Cc1ccc([N+](=O)[O-])cc1)C(=O)O

Consider `CSCC[C@@H](NC(=O)[C@@H](N)Cc1ccc(O)cc1)C(=O)NCC(=O)N[C@@H](Cc1ccc([N+](=O)[O-])cc1)C(=O)N1CCC[C@H]1C(N)=O` [Example 1, H.Tyr.D-Met.Gly.Phe(4NO2).Pro.NH2] (H-Y[dM]G[Phe(4-NO2)]P-NH2), for which the “ANTITUSSIVE ED50 p.o.” value in the test on guinea-pigs is listed as 0.7 mg/kg. In addition, the “ANALGESIA: WRITHING ED50” value in the test with mice [1] was determined as 35 mg/kg. Further, in the test on rat, the “ANTIDARRHOEA ED50 p.o.” value was determined as 2 mg/kg and the “ANTIDARRHOEA ED50 s.c.” value was determined as 0.05 mg/kg. Besides, the “ANALGESIA: MOUSE HOT PLATE ED50” value in the test with mice [2] came to 0.007 μg/mouse.
Take `CSCC[C@@H](NC(=O)[C@@H](N)Cc1ccc(O)cc1)C(=O)NCC(=O)N[C@@H](Cc1ccccc1)C(=O)N1CCC[C@@H]1C(=O)O` [Example 3, H.Tyr.D-Met.Gly.Phe.D-Pro.OH HCl] (H-Y[dM]GF[dP]-OH): the “ANTITUSSIVE (ED50 column): activity at 10 p.o.” value in the test with guinea-pigs (at 10 mg/kg p.o.) is listed as “None”. In the test on rat, the “ANTIDARRHOEA ED50 p.o.” value is given as 7 mg/kg and the “ANTIDARRHOEA ED50 s.c.” value worked out at 2 mg/kg. In addition, in the test with mice [2], the “ANALGESIA: MOUSE HOT PLATE ED50” value came to 0.005 μg/mouse.
As to `CSCC[C@@H](NC(=O)[C@@H](N)Cc1ccc(O)cc1)C(=O)NCC(=O)N[C@@H](Cc1ccc([N+](=O)[O-])cc1)C(=O)N1CCC[C@H]1C(=O)O` [Example 4, H.Tyr.D-Met.Gly.Phe(4NO2).Pro.OH HCl] (H-Y[dM]G[Phe(4-NO2)]P-OH), the “ANTIDARRHOEA p.o. (ED50 column): activity at 10” value in the test with rat (at 10 mg/kg p.o.) is given as “None”. Also, the “ANTIDARRHOEA ED50 s.c.” value in the test with rat was 0.2 mg/kg. Besides, the “ANALGESIA: MOUSE HOT PLATE ED50” value with mice [2] is 0.07 μg/mouse.
As to `CN1CC[C@]23c4c5ccc(O)c4O[C@H]2[C@@H](O)C=C[C@H]3[C@H]1C5` [morphine], the “Abolition of the righting reflex” value in test [3] is given as “does not abolish the righting reflex”.
As to “H.Tyr.D-Met(O2).Gly.Phe(4NO2).Pro.NH2 [Example 7]”, in the test on guinea-pigs, the “ANTITUSSIVE ED50 p.o.” value worked out at 3 mg/kg. Besides, in the test on rat, the “ANTIDARRHOEA ED50 p.o.” value is on record as 0.3 mg/kg and the “ANTIDARRHOEA ED50 s.c.” value came to 0.05 mg/kg. Also, the “ANALGESIA: MOUSE HOT PLATE ED50” value with mice [2] was 0.00008 μg/mouse.
On to “H.Tyr.D-Met.Gly.Phe(4Cl).Pro.NH2 [Example 9]”, for which, in the test on rat, the “ANTIDARRHOEA ED50 p.o.” value was 10 mg/kg and the “ANTIDARRHOEA ED50 s.c.” value is on record as 0.2 mg/kg. Besides, the “ANALGESIA: MOUSE HOT PLATE ED50” value in the test with mice [2] stood at 0.005 μg/mouse.
In the same order, the values of “Tyr.D-Met.Gly.Phe(4NO2).homoPro.NH2 [Example 21]” are 2 mg/kg, 0.03 mg/kg and 0.003 μg/mouse.
